TGI and GI50 data for 13 compounds are collected here from PubChem BioAssay (NCI).

Molecules are shown by their SMILES.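 How tested: cells in 96-well plates exposed to compound for 48 hours at five concentrations. Abbreviation: GI50, concentration required for 50% inhibition of growth. TGI marks complete inhibition of growth.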

Some test systems named below: NCI-H460 lung; COLO 205 colon; IGROV1 ovarian; SF-539 CNS; SF-268 CNS; NCI-H23 lung; SW-620 colon; SNB-75 CNS; UACC-62 melanoma; U251 CNS.
Common to all, as to experiment: NCI anticancer screen, dose series, 48 h

Consider `COc1cc2c(cc1O)N=C[C@@H]1CCC(O)N1C2=O` (mixture of isomers), for which the TGI with NCI-H460 lung was 11.4 µM; in the assay with COLO 205 colon, 1.93 µM; with IGROV1 ovarian, 75.5 µM; in the assay on SF-539 CNS, 1.83 µM; in the assay on SF-268 CNS, 6.25 µM; with NCI-H23 lung, 4.38 µM. The TGI was found to be 6.96 µM in the assay on SW-620 colon, 3.26 µM in the assay with SNB-75 CNS, 1.5 µM in the assay on UACC-62 melanoma and 1.71 µM with U251 CNS.
Take `O=C1NC(=O)C2(CCc3ccc(N(CCCl)CCCl)cc32)N1` (stereo not drawn): the TGI in the assay on NCI-H460 lung was 23.8 µM; with COLO 205 colon, 17.5 µM; in the assay with IGROV1 ovarian, 34.6 µM; in the assay on SF-539 CNS, 22.2 µM; in the assay with SF-268 CNS it was 73.5 µM; with NCI-H23 lung, 26.2 µM. For the same compound, the TGI in the assay with SW-620 colon worked out at 61.9 µM; in the assay with SNB-75 CNS it was 26.3 µM; in the assay on UACC-62 melanoma, 15.8 µM; with U251 CNS, 33 µM.
Consider `COc1ccc2oc3c(ccc[n+]3C)c(=O)c2c1`, for which the TGI in the assay with NCI-H460 lung, in the assay with COLO 205 colon, with IGROV1 ovarian, in the assay with SF-539 CNS, with SF-268 CNS and with NCI-H23 lung was above 100 µM throughout. The TGI with SW-620 colon, with SNB-75 CNS, with UACC-62 melanoma and in the assay with U251 CNS was above 100 µM each time.
Take `COc1ccc(-c2c(C#N)cnc(N)c2-c2nc3cc(C)c(C)cc3[nH]2)cc1`: the GI50 is 18.1 µM in the assay on NCI-H460 lung; 7.78 µM in the assay on COLO 205 colon; 16 µM in the assay with IGROV1 ovarian; 11.5 µM in the assay on SF-539 CNS; 9.8 µM with SF-268 CNS; 5.37 µM in the assay with NCI-H23 lung. The GI50 with SW-620 colon is 6.76 µM; with SNB-75 CNS it was 2.36 µM; in the assay with UACC-62 melanoma it was 7.22 µM; with U251 CNS, 3.65 µM. Moreover, the TGI with NCI-H460 lung was above 100 µM; with COLO 205 colon, 63.7 µM; in the assay with IGROV1 ovarian, above 100 µM; with SF-539 CNS, 41.9 µM; in the assay with SF-268 CNS, 65.7 µM; in the assay with NCI-H23 lung, 33.3 µM. In addition, the TGI with SW-620 colon is above 100 µM; in the assay on SNB-75 CNS, 8.19 µM; in the assay on UACC-62 melanoma it was above 100 µM; in the assay on U251 CNS it was 12.7 µM.
Take `CCc1ncc(C(C)(O)c2ccccc2)n1Cc1ccccc1` (stereo not drawn): the TGI in the assay with NCI-H460 lung, in the assay with COLO 205 colon, in the assay with IGROV1 ovarian, with SF-539 CNS, in the assay on SF-268 CNS and with NCI-H23 lung was above 100 µM in each case. Also, the TGI in the assay on SW-620 colon was above 100 µM; in the assay with SNB-75 CNS it was above 100 µM; in the assay with UACC-62 melanoma, 54.2 µM; in the assay with U251 CNS, above 100 µM.
On to `C/C=C1/C(=O)O[C@]23C=C[C@@H]4C(C(=O)OC)=CO[C@H](O[C@@H]12)[C@@H]43`, for which the TGI was found to be 32.4 µM in the assay on NCI-H460 lung; 3.29 µM with COLO 205 colon; 4.88 µM with IGROV1 ovarian; 7.39 µM in the assay with SF-539 CNS; 5.62 µM in the assay on SF-268 CNS; 3.51 µM with NCI-H23 lung. Also, the TGI stood at 7.38 µM in the assay on SNB-75 CNS, 2.89 µM in the assay on UACC-62 melanoma and 5.9 µM in the assay with U251 CNS.
Turning to `CC(=O)O[C@@H]1CN(S(=O)(=O)c2ccc(C)cc2)C[C@@H]1C1CCCCC1`, the TGI with NCI-H460 lung is above 100 µM; in the assay on COLO 205 colon, 46.5 µM; in the assay on IGROV1 ovarian it was 38.6 µM; with SF-539 CNS, 0.609 µM; in the assay on SF-268 CNS it was 52.5 µM; in the assay with NCI-H23 lung, above 100 µM. Also, the TGI with SW-620 colon is 41.3 µM; in the assay on SNB-75 CNS, 44.4 µM; with UACC-62 melanoma it was 33.4 µM; in the assay with U251 CNS it was 37.2 µM.
With `COc1ccc(/C=C/C(=O)/C=C(/C=C/c2ccc(OC)c(OC)c2OC)OB(F)F)c(OC)c1OC`, the GI50 is 1.66 µM in the assay with NCI-H460 lung; 1.94 µM in the assay on COLO 205 colon; 1.89 µM in the assay with IGROV1 ovarian; 3.11 µM in the assay on SF-539 CNS; 2.93 µM in the assay with SF-268 CNS; 0.58 µM in the assay with SW-620 colon. Further, the results for the GI50 in the assay on SNB-75 CNS, with UACC-62 melanoma and in the assay with U251 CNS were 4.84 µM, 1.47 µM and 0.973 µM, respectively. The TGI in the assay on NCI-H460 lung is 3.52 µM; in the assay with COLO 205 colon it was 6.84 µM; with IGROV1 ovarian it was above 100 µM; with SF-539 CNS it was above 100 µM; with SF-268 CNS it was above 100 µM; in the assay with SW-620 colon it was 4.34 µM. For the same compound, the TGI was above 100 µM in the assay with SNB-75 CNS, 4.69 µM in the assay with UACC-62 melanoma and 8.09 µM in the assay on U251 CNS.
With `CC(CNc1nc(Nc2ccc(Cl)c(Cl)c2)nc(C(Cl)(Cl)Cl)n1)N(C)C` (stereo not drawn), the GI50 is 1.66 µM in the assay with NCI-H460 lung; 1.83 µM with COLO 205 colon; 1.63 µM in the assay on NCI-H23 lung; 1.6 µM in the assay on SW-620 colon; 1.53 µM with SNB-75 CNS; 1.71 µM with UACC-62 melanoma. The TGI was 3.11 µM in the assay on NCI-H460 lung; 3.39 µM in the assay on COLO 205 colon; 3.38 µM in the assay with NCI-H23 lung; 2.95 µM with SW-620 colon; 4.7 µM in the assay on SNB-75 CNS; 3.11 µM in the assay on UACC-62 melanoma.
Turning to `Nc1ccc2c(c1)S(=O)(=O)c1cc(N)ccc1-2`, the TGI in the assay with NCI-H460 lung, with COLO 205 colon, in the assay with IGROV1 ovarian, in the assay with SF-539 CNS, with SF-268 CNS and with NCI-H23 lung was above 100 µM in each case. The TGI in the assay with SW-620 colon, in the assay with UACC-62 melanoma and in the assay on U251 CNS was above 100 µM each time.
As to `O=c1ccc2nc3ccc(O)cc3oc-2c1`, the TGI with NCI-H460 lung is above 100 µM; in the assay on COLO 205 colon, 24.9 µM; in the assay with IGROV1 ovarian, above 100 µM; in the assay with SF-539 CNS, above 59.8 µM; in the assay with SF-268 CNS, above 100 µM; in the assay with NCI-H23 lung it was 14.3 µM. Moreover, the TGI with SW-620 colon is above 88.9 µM; with SNB-75 CNS it was 22 µM; in the assay with UACC-62 melanoma it was 5.55 µM; in the assay on U251 CNS, above 100 µM.
In the case of `CC(=O)Nc1nc(C)c(-c2cc3c(c(S(C)(=O)=O)c2)C(=O)N([C@@H](C)C2CC2)C3)s1`, the GI50 was 37.1 µM in the assay on NCI-H460 lung; 34.9 µM in the assay with COLO 205 colon; 27.2 µM in the assay on IGROV1 ovarian; 24.2 µM in the assay on SF-539 CNS; 20.4 µM in the assay with SF-268 CNS; 31.1 µM with NCI-H23 lung. The GI50 in the assay on SW-620 colon was 54.5 µM; with SNB-75 CNS, 3.11 µM; with UACC-62 melanoma it was 34.8 µM; in the assay with U251 CNS, 29.5 µM. The TGI in the assay on NCI-H460 lung, in the assay on COLO 205 colon, with IGROV1 ovarian, in the assay on SF-539 CNS, with SF-268 CNS and with NCI-H23 lung was above 100 µM each time. The TGI is above 100 µM in the assay with SW-620 colon, 35.6 µM in the assay on SNB-75 CNS, above 100 µM with UACC-62 melanoma and above 100 µM in the assay on U251 CNS.
Turning to `Cc1ccc(C(=O)N/N=C(\N=Nc2ccccc2)c2ccc(N(CCC#N)CCC#N)cc2C)cc1`, the TGI with NCI-H460 lung was above 100 µM; with COLO 205 colon it was above 100 µM; with IGROV1 ovarian, above 100 µM; in the assay on SF-539 CNS, 39.9 µM; with SF-268 CNS, 61.7 µM; in the assay with NCI-H23 lung, above 100 µM. Besides, the TGI with SW-620 colon, in the assay on SNB-75 CNS, in the assay on UACC-62 melanoma and with U251 CNS was above 100 µM throughout.
